Reference: US9675606B2, “2-amino-3-(imidazol-2-yl)-pyridin-4-one derivatives and their use as VEGF receptor kinase inhibitors” (SANOFI, priority 2011, dated 2017)

Molecular target: T1, VEGFR-3 (Homo sapiens, UniProt P35916)
T1 construct: expressed in transfected cells; host or cells: HEK293T cells, transient transfection with Fugene-6
Experiment: Effect of compounds on VEGFR-3 auto-phosphorylation in HEK cells (ELISA)
Type: cell-based
Settings: autophosphorylation of VEGFR-3-Flag overexpressed in HEK293T cells, 1 h incubation with compound
Description: Effect of Compounds on VEGFR-3 Auto-Phosphorylation in HEK Cells
The effects of compounds in blocking VEGFR-3 autophosphorylation were quatified by ELISA after Overexpression of VEGFR-3 in HEK cells. HEK293T cells were maintained in MEM supplemented with 10% foetal calf serum (FCS) and glutamine. The day before transfection, […] were seeded on 48 wells plates and transfection was done using Fugene-6 (Roche, Basel). Fugene-6 (18 μL) was preincubated for 5 min with 282 μl of optimem. Then 3 μg DNA corresponding VFGR-3-Flag was added and left at room temperature during 10 min before distributing 200 μl on HEK cells. After 24 h, the medium was removed and replaced by a new one without serum and incubated for 1 h with different concentrations (ranging from 3 to 1000 nM) of each compound. After additional 30 min incubation with Orthovanadate (0.4 mM), cells were washed with cold PBS supplemented by orthovanadate and then lysed with 300 μl of RIPA buffer. Lysates were then centrifuged during 10 min at 10000 g. Supernatants (75 μl) were distributed in duplicate on 96 well plate precoated with the anti-Flag and left during 1 hour at room temperature. After 3 washes with TBS buffer containing 0.5% tween 20, the anti-phospho-tyrosine conjugated to the HRP was added and incubated for 1 hour at room temperature. Wells were then washed 3 times with TBS buffer containing tween 20 (0.5%) and MgCl2 (2 mM). The reaction was stopped with 50 μl of H2SO4 (2 N) and the signal was read at Envision at 485 and 530.
The concentration-response curves were analyzed with internal software Biost@t-SPEED v2.0 using the 4-parameter logistic model according to Ratkovsky and Reedy (Ratkovsky D A., Reedy T J. Choosing near-linear parameters in the four parameters logistic model radioligands and related assays. Biometrics 1986 September 42(3):575-82.)

T1 sequence (P35916 25-1363, species assumed): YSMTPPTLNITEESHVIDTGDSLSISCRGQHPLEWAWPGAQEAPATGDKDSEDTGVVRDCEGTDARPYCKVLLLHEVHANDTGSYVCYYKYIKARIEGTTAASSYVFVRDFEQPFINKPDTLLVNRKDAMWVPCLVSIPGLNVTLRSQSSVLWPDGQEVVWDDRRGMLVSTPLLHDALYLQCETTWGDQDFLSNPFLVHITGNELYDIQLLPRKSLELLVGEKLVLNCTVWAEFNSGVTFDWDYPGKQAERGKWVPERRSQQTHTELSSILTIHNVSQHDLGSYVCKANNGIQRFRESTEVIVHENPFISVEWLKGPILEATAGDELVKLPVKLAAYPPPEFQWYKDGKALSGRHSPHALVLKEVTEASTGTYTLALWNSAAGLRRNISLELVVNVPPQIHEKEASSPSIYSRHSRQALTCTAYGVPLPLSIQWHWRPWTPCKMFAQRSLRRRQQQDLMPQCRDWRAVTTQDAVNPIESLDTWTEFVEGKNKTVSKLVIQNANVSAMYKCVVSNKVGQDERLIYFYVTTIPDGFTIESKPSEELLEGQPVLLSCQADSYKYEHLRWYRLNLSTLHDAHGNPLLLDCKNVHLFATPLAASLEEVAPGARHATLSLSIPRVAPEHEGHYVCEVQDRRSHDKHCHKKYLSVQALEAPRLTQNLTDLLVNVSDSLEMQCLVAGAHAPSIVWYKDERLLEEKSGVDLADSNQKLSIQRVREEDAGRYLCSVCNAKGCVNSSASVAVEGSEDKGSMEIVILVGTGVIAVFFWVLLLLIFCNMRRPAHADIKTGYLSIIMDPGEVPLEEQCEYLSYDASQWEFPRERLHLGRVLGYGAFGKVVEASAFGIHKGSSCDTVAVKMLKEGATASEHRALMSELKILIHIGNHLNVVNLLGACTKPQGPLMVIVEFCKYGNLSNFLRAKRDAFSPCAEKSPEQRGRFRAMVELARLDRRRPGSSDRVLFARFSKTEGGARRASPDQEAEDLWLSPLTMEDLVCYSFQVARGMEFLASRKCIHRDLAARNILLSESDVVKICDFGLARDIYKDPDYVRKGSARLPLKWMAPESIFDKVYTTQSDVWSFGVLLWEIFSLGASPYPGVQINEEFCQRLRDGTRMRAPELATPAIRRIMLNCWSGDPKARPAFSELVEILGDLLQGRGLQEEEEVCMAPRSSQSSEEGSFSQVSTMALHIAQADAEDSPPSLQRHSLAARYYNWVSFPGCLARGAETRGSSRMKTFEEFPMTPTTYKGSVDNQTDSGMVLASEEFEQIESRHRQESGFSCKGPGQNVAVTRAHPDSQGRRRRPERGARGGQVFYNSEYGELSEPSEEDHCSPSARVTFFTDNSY

SMILES | IC50
CCn1c(N)c(-c2ncc[nH]2)c(=O)c2ccc(C#CC3(O)CCCC3)nc21 [Compound 14, 2-Amino-1-ethyl-7-[(1-hydroxycyclopentyl)ethynyl]-3-(1H-imidazol-2-yl)-1,8-naphthyridin-4(1H)-one] | 200 nM
CCn1c(N)c(-c2ncc[nH]2)c(=O)c2ccc(C#CC(O)C(C)C)nc21 (racemic) [Compound 25, 2-Amino-1-ethyl-7-(3-hydroxy-4-methylpent-1-yn-1-yl)-3-(1H-imidazol-2-yl)-1,8-naphthyridin-4(1H)-one] | 303 nM
CCC(O)C#Cc1ccc2c(=O)c(-c3ncc[nH]3)c(N)n(CCOC)c2n1 (racemic) [Compound 12, 2-Amino-7-(3-hydroxypent-1-yn-1-yl)-3-(1H-imidazol-2-yl)-1-(2-methoxyethyl)-1,8-naphthyridin-4(1H)-one] | 166 nM
CCC(O)C#Cc1ccc2c(=O)c(-c3ncc[nH]3)c(N)n(CCCOC)c2n1 (racemic) [Compound 11, 2-Amino-7-(3-hydroxypent-1-yn-1-yl)-3-(1H-imidazol-2-yl)-1-(3-methoxypropyl)-1,8-naphthyridin-4(1H)-one] | 334 nM
CCn1c(N)c(-c2ncc[nH]2)c(=O)c2ccc(C#C[C@](C)(O)CO)nc21 [Compound 28, 2-Amino-7-((3S)3,4-dihydroxy-3-methyl-but-1-ynyl)-1-ethyl-3-(1H-imidazol-2-yl)-1,8-naphthyridin-4(1H)-one] | 153 nM
CCn1c(N)c(-c2ncc[nH]2)c(=O)c2ccc(C#CC(O)c3ccccc3)nc21 (racemic) [Compound 26, 2-Amino-1-ethyl-7-(3-hydroxy-3-phenylprop-1-yn-1-yl)-3-(1H-imidazol-2-yl)-1,8-naphthyridin-4(1H)-one] | 120 nM
CCn1c(N)c(-c2ncc[nH]2)c(=O)c2ccc(-c3ccc(O)c(Cl)c3)nc21 [Compound 8, 2-Amino-7-(3-chloro-4-hydroxyphenyl)-1-ethyl-3-(1H-imidazol-2-yl)-1,8-naphthyridin-4(1H)-one] | 73 nM

Stronger by IC50, values ahead:

IC50 | SMILES
18 nM | CCCn1c(N)c(-c2ncc[nH]2)c(=O)c2ccc(C#C[C@@](C)(O)COC)nc21 [Compound 2, 2-Amino-1-propyl-7-((3R)-3-hydroxy-4-methoxy-3-methyl-but-1-ynyl)-3-(1H-imidazol-2-yl)-1H-[1,8]naphthyridin-4-one]
37 nM | CCC(O)C#Cc1ccc2c(=O)c(-c3ncc[nH]3)c(N)n(C3CCCC3)c2n1 (racemic) [Compound 10, 2-Amino-1-cyclopentyl-7-(3-hydroxypent-1-yn-1-yl)-3-(1H-imidazol-2-yl)-1,8-naphthyridin-4(1H)-one]
19 nM | CCC(O)C#Cc1ccc2c(=O)c(-c3ncc[nH]3)c(N)n(CC)c2n1 (racemic) [Compound 23, 2-Amino-1-ethyl-7-(3-hydroxypent-1-yn-1-yl)-3-(1H-imidazol-2-yl)-1,8-naphthyridin-4(1H)-one]
47 nM | CCn1c(N)c(-c2ncc[nH]2)c(=O)c2ccc(C#C[C@@](C)(O)CO)nc21 [Compound 27, 2-Amino-7-((3R)3,4-dihydroxy-3-methyl-but-1-ynyl)-1-ethyl-3-(1H-imidazol-2-yl)-1,8-naphthyridin-4(1H)-one]
14 nM | CCn1c(N)c(-c2ncc[nH]2)c(=O)c2ccc(C#CC(O)(c3ccccc3)C(F)(F)F)nc21 (racemic) [Compound 19, 2-Amino-1-ethyl-3-(1H-imidazol-2-yl)-7-(4,4,4-trifluoro-3-hydroxy-3-phenylbut-1-yn-1-yl)-1,8-naphthyridin-4(1H)-one]
27 nM | CCn1c(N)c(-c2ncc[nH]2)c(=O)c2ccc(C#CC(C)(C)O)nc21 [Compound 15, 2-Amino-1-ethyl-7-(3-hydroxy-3-methylbut-1-yn-1-yl)-3-(1H-imidazol-2-yl)-1,8-naphthyridin-4(1H)-one]
24 nM | CCn1c(N)c(-c2ncc[nH]2)c(=O)c2ccc(C#CC(C)(O)c3cccs3)nc21 (racemic) [Compound 21, 2-Amino-1-ethyl-7-[3-hydroxy-3-(thiophen-2-yl)but-1-yn-1-yl]-3-(1H-imidazol-2-yl)-1,8-naphthyridin-4(1H)-one]
